Reference: patent US9999222B2, “Herbicidal combination comprising azines” (BASF SE, priority 2014, dated 2018)
Like-named read-outs stand apart in the source and are kept apart here.

Tests used:
Experiment in all cases: Greenhouse test, pre-emergence treatment
KCHSC = format: in vivo, Kochia scoparia; conditions: Bassia scoparia, pre-emergence, 480 h
In short: (§1)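 Damage was rated on a 0-100 scale, with 100 meaning no emergence or full destruction of aerial parts. Observed combination effects were set against the additive Colby expectation E=X+Y−(X·Y/100). Spray liquor was water-based, from 10% emulsion concentrates, applied pre-emergence right after sowing in loamy sand (about 3.0% humus). Plants were held at 10-25 °C or 20-35 °C for 2 to 4 weeks.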

ALOMY = format: in vivo, Alopecurus myosuroides; conditions: Alopecurus myosuroides, pre-emergence, 480 h
In short: as §1

LOLMU = format: in vivo, Lolium multiflorum; conditions: Lolium multiflorum, pre-emergence, 480 h, pre-emergence, read-out: observed % activity 20 DAT
In short: as §1

AVEFA = format: in vivo, Avena fatua; conditions: pre-emergence
Description: (§2) The culture containers used were plastic flowerpots containing loamy sand with approximately 3.0% of humus as the substrate. The seeds of the test plants were sown separately for each species.
(§3) For the pre-emergence treatment, the active ingredients, which had been suspended or emulsified in water, were applied directly after sowing by means of finely distributing nozzles. The containers were irrigated gently to promote germination and growth and subsequently covered with transparent plastic hoods until the plants had rooted. This cover caused uniform germination of the test plants, unless this had been impaired by the active ingredients.
(§4) Depending on the species, the plants were kept at 10-25° C. or 20-35° C., respectively.
(§5) The test period extended over 2 to 4 weeks. During this time, the plants were tended, and their response to the individual treatments was evaluated.
(§6) Evaluation was carried out using a scale from 0 to 100. 100 means no emergence of the plants, or complete destruction of at least the aerial moieties, and 0 means no damage, or normal course of growth. A moderate herbicidal activity is given at values of at least 60, a good herbicidal activity is given at values of at least 70, and a very good herbicidal activity is given at values of at least 85.
(§7) The respective stated components a and b, and if appropriate, c were formulated as a 10% by weight strength emulsion concentrate and, with addition of the amount of solvent system, introduced into the spray liquor used for applying the active compound.
(§8) In the examples, the solvent used was water.
(§9) In the examples below, using the method of S. R. Colby (1967) “Calculating synergistic and antagonistic responses of herbicide combinations”, Weeds 15, p. 22ff., the value E, which is expected if the activity of the individual active compounds is only additive, was calculated. E=X+Y−(X·Y/100) where • X=percent activity using active compound a at an application rate A; • Y=percent activity using active compound b at an application rate B; • E=expected activity (in %) by a+b at application rates A+B.
(§10) If the value found experimentally is higher than the value E calculated according to Colby, a synergistic effect is present.

PHACA = format: in vivo, Phalaris canariensis; conditions: Phalaris canariensis, pre-emergence, 480 h
Description: as §2, §3, §4, §5, §6, §7, §8, §9, §10

POLCO = format: in vivo, Polygonum convolvulus; conditions: Fallopia convolvulus, pre-emergence, 480 h, 20 g ai/ha, 20 DAT; read-out: observed % activity
In short: as §1

ECHCG = format: in vivo, Echinocloa crus-galli; conditions: Echinochloa crus-galli, 480 h, read-out: observed % activity 20 DAT
In short: as §1

SETFA = format: in vivo, Setaria faberi; conditions: Setaria faberi, 480 h, use rate 30 g ai/ha, read-out: observed % activity 20 DAT
In short: as §1

BRADC = format: in vivo, Brachiaria decumbens; conditions: Urochloa decumbens, pre-emergence, 480 h
Description: as §2, §3, §4, §5, §6, §7, §8, §9, §10

GALAP = format: in vivo, Galium aparine; conditions: Galium aparine, pre-emergence, 480 h, 40 g ai/ha, 20 DAT; read-out: observed % activity
In short: as §1

[1] = 10 g ai/ha, 20 DAT, read-out: observed % activity
[2] = 20 g ai/ha, 20 DAT, read-out: observed % activity
[3] = 40 g ai/ha, 20 DAT, read-out: observed % activity
[4] = use rate 30 g ai/ha, read-out: observed % activity 20 DAT
[5] = use rate 60 g ai/ha, read-out: observed % activity 20 DAT
[6] = 10 g ai/ha, read-out: observed % activity 20 DAT
[7] = 20 g ai/ha, read-out: observed % activity 20 DAT
[8] = 40 g ai/ha, read-out: observed % activity 20 DAT
[9] = use rate 60 g ai/ha, 20 DAT, read-out: observed % activity 20 DAT
[10] = 30 g ai/ha, read-out: observed % activity 20 DAT

Compound: CC(C)N(C(=O)COc1nnc(C(F)(F)F)s1)c1ccc(F)cc1 [Flufenacet, flufenacet]
- inhibition at 10 g/ha (KCHSC; [1]): 0%
- inhibition at 20 g/ha (KCHSC; [2]): 0%
- inhibition at 40 g/ha (KCHSC; [3]): 0%
- inhibition at 30 g/ha (KCHSC; [4]): 0%
- inhibition at 60 g/ha (KCHSC; [5]): 0%
- inhibition at 10 g/ha (ALOMY; [1]): 28%
- pest or weed control at 10 g/ha (ALOMY; [6]): 25%
- pest or weed control at 20 g/ha (ALOMY; [7]): 70%
- pest or weed control at 40 g/ha (ALOMY; [8]): 75%
- inhibition at 30 g/ha (ALOMY; [4]): 75%
- pest or weed control at 60 g/ha (ALOMY; [9]): 80%
- inhibition at 60 g/ha (ALOMY; [5]): 80%
- pest or weed control at 10 g/ha (LOLMU; 10 g ai/ha): 0%
- pest or weed control at 20 g/ha (LOLMU; 20 g ai/ha): 20%
- pest or weed control at 30 g/ha (LOLMU; 30 g ai/ha): 30%
- pest or weed control at 40 g/ha (LOLMU; 40 g ai/ha): 55%
- pest or weed control at 30 g/ha (LOLMU; use rate 30 g ai/ha, 20 DAT): 0%
- inhibition at 30 g/ha (LOLMU; use rate 30 g ai/ha): 20%
- pest or weed control at 60 g/ha (LOLMU; use rate 60 g ai/ha, 20 DAT): 30%
- inhibition at 60 g/ha (LOLMU; use rate 60 g ai/ha): 30%
- inhibition at 40 g/ha (AVEFA; Avena fatua, 480 h, 40 g ai/ha, 20 DAT, read-out: observed % activity): 10%
- observed % activity 20 DAT (AVEFA; 30 g ai/ha): 0%
- observed % activity 20 DAT (AVEFA; 40 g ai/ha): 55%
- inhibition at 10 g/ha (PHACA; [1]): 0%
- inhibition at 20 g/ha (PHACA; [2]): 33%
- pest or weed control at 10 g/ha (PHACA; [6]): 10%
- pest or weed control at 20 g/ha (PHACA; [7]): 65%
- pest or weed control at 30 g/ha (PHACA; [10]): 80%
- pest or weed control at 40 g/ha (PHACA; [8]): 75%
- inhibition at 30 g/ha (PHACA; [4]): 65%
- pest or weed control at 60 g/ha (PHACA; [9]): 98%
- inhibition at 60 g/ha (PHACA; [5]): 98%
- inhibition at 20 g/ha (POLCO): 0%
- pest or weed control at 30 g/ha (ECHCG; 30 g ai/ha): 75%
- pest or weed control at 60 g/ha (ECHCG; 60 g ai/ha): 95%
- pest or weed control at 30 g/ha (ECHCG; use rate 30 g ai/ha, 20 DAT): 85%
- inhibition at 30 g/ha (ECHCG; use rate 30 g ai/ha): 85%
- inhibition at 30 g/ha (SETFA): 98%
- inhibition at 40 g/ha (BRADC; [3]): 65%
- pest or weed control at 10 g/ha (BRADC; [6]): 45%
- pest or weed control at 20 g/ha (BRADC; [7]): 40%
- pest or weed control at 30 g/ha (BRADC; [10]): 0%
- pest or weed control at 40 g/ha (BRADC; [8]): 25%
- pest or weed control at 60 g/ha (BRADC; 60 g ai/ha, read-out: observed % activity 20 DAT): 98%
- inhibition at 40 g/ha (GALAP): 40%
